Tests used:
SV1/Gs = assay: Gs activation (G protein NanoBiT assay); format: cell-based, human; settings: HEK293T
Description: HEK293T cells were seeded at a density of 30,000 cells per well into 96-well culture plates pretreated with poly-D-lysine hydrobromide. After incubation for 24 h to reach 70% to 80% confluence, the cells were transiently transfected with GHRHR or SV1, Gαs-LgBiT, Gβ1, and Gγ2-SmBiT, at a 2:1:5:5 mass ratio. Twenty-four hours after transfection, cells were washed once and incubated for 30 min at 37 °C with HBSS buffer (pH 7.4) supplemented with 0.1% BSA and 10 mM HEPES. They were then reacted with coelenterazine H (5 μM) for 1 h at RT. Luminescence signals were measured using an Envision plate reader at 15-s intervals (25 °C). […] Data were corrected to baseline and vehicle-treated samples.
(§1) All functional study data were analyzed using Prism 7 (GraphPad) and presented as means ± SEM from at least three independent experiments. Concentration-response curves were evaluated with a three-parameter logistic equation. The significance was determined with either two-tailed Student’s t test or one-way ANOVA, and P < 0.05 is considered statistically significant.
Table S1. Effects of SV1 on GHRH-induced Gs activation.
Plasmid pEC50 Emax (% WT GHRHR)
G protein NanoBiT data were analyzed using a three-parameter logistic equation to d et ermine pEC50 and Emax values. pEC50 is the negative logarithm of the molar concentration of agonist that induced half the maximal response. Emax is expressed as a percentage of GHRHR/Gs response.
All values are means ± S.E.M. of five independent experiments (n = 5) conducted in duplicate. One-way ANOVA was used to determine statistical significance (*P < 0.05). WT, wild-type; NA, not

GHRHR F85A = target: T1, GHRHR F85A (Homo sapiens, UniProt Q02643, F85A); assay: cAMP accumulation; format: cell-based; settings: Table S2, mean ± SEM
T1 construct: expressed in transfected cells; host or cells: HEK293T
Description: (§2) GHRH-stimulated cAMP accumulation was measured by a LANCE Ultra cAMP kit (PerkinElmer). Briefly, HEK293T cells (24 h after transfection with SV1 or GHRHR) or prostate cancer cells were digested by 0.2% (wt/vol) EDTA and washed once with Dulbecco’s phosphate-buffered saline (PBS). Cells were then resuspended with stimulation buffer (Hanks’ balanced salt solution [HBSS] supplemented with 5 mM HEPES, 0.5 mM IBMX, and 0.1% [wt/vol] bovine serum albumin [BSA], pH 7.4) to a density of 0.6 million cells per milliliter and added to 384-well white plates (3,000 cells per well). […] The reaction was stopped by adding 5 μL Eu-cAMP tracer and 5 μL ULight-anti-cAMP. After 1 h RT incubation, TR-FRET signals (excitation: 320 nm, emission: 615 and 665 nm) were measured by an Envision plate reader (PerkinElmer). cAMP concentrations were interpolated by a standard curve.
as §1
(§3) Table S2. Effects of residue mutation or truncation in the ECD of GHRHR on GHRH-induced cAMP […]
(§4) Mutant pEC50 Emax (% WT GHRHR) expression ΔLog (τ/KA) […]
(§5) cAMP accumulation data were analyzed using a three-parameter logistic equation to determine pEC50 and Emax values. pEC50 is the negative logarithm of the molar concentration of agonist that induced half the maximal response. Emax for mutants is expressed as a percentage of the WT GHRHR. Data were analyzed by nonlinear regression using the operational model equation to determine t he logR values (logτ/KA, i.e., logarithm of the transduction ratio). τ is the effi cacy value of the agonist and was corrected by cell surface expression of the receptor. KA is dissociation constant. Changes in transduction ratio (ΔlogR) were calculated to determine the relative effectiveness of the mutants. All values are means ± S.E.M. of at le ast three ind ep en dent experiments (n = 3-5) conducted in quadruplicate. Statistical analysis was carried out by comparing the control responses in the WT GHRHR. **, P < 0.01 and ***, P < 0.001, determined by one-way

GHRHR L34A = target: T2, GHRHR L34A (Homo sapiens, UniProt Q02643, L34A); assay: cAMP accumulation; format: cell-based; settings: Table S2, mean ± SEM
T2 construct: expressed in transfected cells; host or cells: HEK293T
Description: as §2, §1, §3, §4, §5

GHRHR Δ102 = target: T3, GHRHR Δ102 (Homo sapiens, UniProt Q02643); assay: cAMP accumulation; format: cell-based; settings: Table S2, mean ± SEM
T3 construct: expressed in transfected cells; host or cells: HEK293T
Description: as §2, §1, §3, §4, §5

GHRHR Δ112 = target: T4, GHRHR Δ112 (Homo sapiens, UniProt Q02643); assay: cAMP accumulation; format: cell-based; settings: Table S2, mean ± SEM
T4 construct: expressed in transfected cells; host or cells: HEK293T
Description: as §2, §1, §3, §4, §5

GHRHR Δ42 = target: T5, GHRHR Δ42 (Homo sapiens, UniProt Q02643); assay: cAMP accumulation; format: cell-based; settings: Table S2, mean ± SEM
T5 construct: expressed in transfected cells; host or cells: HEK293T
Description: as §2, §1, §3, §4, §5

GHRHR Δ52 = target: T6, GHRHR Δ52 (Homo sapiens, UniProt Q02643); assay: cAMP accumulation; format: cell-based; settings: Table S2, mean ± SEM
T6 construct: expressed in transfected cells; host or cells: HEK293T
Description: as §2, §1, §3, §4, §5

GHRHR Δ62 = target: T7, GHRHR Δ62 (Homo sapiens, UniProt Q02643); assay: cAMP accumulation; format: cell-based; settings: Table S2, mean ± SEM
T7 construct: expressed in transfected cells; host or cells: HEK293T
Description: as §2, §1, §3, §4, §5

GHRHR Δ82 = target: T8, GHRHR Δ82 (Homo sapiens, UniProt Q02643); assay: cAMP accumulation; format: cell-based; settings: Table S2, mean ± SEM
T8 construct: expressed in transfected cells; host or cells: HEK293T
Description: as §2, §1, §3, §4, §5

GHRHR Δ89 = target: T9, GHRHR Δ89 (Homo sapiens, UniProt Q02643); assay: cAMP accumulation; format: cell-based
T9 construct: expressed in transfected cells; host or cells: HEK293T
T9 sequence (Q02643 90-423): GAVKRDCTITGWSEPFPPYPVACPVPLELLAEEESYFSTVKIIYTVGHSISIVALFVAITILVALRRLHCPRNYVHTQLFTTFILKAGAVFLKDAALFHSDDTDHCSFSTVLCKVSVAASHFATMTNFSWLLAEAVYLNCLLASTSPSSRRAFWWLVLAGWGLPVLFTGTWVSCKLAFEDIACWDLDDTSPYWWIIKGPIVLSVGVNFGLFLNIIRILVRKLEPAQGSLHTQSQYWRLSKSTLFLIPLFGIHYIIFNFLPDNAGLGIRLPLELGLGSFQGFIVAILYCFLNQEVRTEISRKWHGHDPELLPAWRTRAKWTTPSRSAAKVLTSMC
Description: as §2, §1, §3, §4, §5

GHRHR Δ32 = target: T10, GHRHR Δ32 (Homo sapiens, UniProt Q02643); assay: cAMP accumulation; format: cell-based; settings: Table S2; operational model; τ corrected by cell surface expression; relative to WT GHRHR; mean ± SEM
T10 construct: expressed in transfected cells; host or cells: HEK293T
Description: Concentration-response curves were evaluated with a three-parameter logistic equation.

[1] = HEK-293T, HEK293T, n = 3-5 in quadruplicate
[2] = operational model, τ corrected by cell surface expression, relative to WT GHRHR

T5 sequence (Q02643 43-423 limits assumed, stated change not applied): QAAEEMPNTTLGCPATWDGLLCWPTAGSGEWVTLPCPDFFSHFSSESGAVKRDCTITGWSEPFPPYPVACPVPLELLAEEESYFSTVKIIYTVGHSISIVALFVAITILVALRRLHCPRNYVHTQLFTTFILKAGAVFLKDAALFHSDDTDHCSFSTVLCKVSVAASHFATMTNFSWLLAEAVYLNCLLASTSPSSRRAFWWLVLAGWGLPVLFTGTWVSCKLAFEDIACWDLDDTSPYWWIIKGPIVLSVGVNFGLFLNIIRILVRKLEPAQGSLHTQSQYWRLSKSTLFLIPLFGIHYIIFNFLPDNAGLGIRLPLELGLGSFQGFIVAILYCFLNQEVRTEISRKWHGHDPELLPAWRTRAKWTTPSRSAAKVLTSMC
T2 sequence (Q02643 23-423 L34A): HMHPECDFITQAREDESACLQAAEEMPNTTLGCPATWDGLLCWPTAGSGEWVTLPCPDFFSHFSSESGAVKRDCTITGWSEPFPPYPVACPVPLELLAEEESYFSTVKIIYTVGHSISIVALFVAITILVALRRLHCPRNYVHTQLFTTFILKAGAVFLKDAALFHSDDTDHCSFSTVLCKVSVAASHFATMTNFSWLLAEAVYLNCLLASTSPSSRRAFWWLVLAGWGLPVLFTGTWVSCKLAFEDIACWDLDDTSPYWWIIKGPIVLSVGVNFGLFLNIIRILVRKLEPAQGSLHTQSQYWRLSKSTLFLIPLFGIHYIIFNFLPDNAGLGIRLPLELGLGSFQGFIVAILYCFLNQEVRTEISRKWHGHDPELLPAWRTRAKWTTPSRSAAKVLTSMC
T1 sequence (Q02643 23-423 F85A): as the sequence (Q02643 23-423 L34A) above, with A12L, F63A counted along it
T6 sequence (Q02643 53-423 limits assumed, stated change not applied): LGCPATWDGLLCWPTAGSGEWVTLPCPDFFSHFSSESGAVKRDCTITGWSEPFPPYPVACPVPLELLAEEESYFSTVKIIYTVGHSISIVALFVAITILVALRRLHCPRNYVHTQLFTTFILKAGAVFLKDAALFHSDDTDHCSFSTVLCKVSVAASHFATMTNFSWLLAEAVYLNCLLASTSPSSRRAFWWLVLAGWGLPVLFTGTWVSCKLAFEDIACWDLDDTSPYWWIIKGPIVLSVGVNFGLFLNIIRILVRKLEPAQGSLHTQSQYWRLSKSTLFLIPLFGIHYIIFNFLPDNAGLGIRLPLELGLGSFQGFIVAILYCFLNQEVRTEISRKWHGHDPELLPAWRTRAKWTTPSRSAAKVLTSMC
T7 sequence (Q02643 63-423 limits assumed, stated change not applied): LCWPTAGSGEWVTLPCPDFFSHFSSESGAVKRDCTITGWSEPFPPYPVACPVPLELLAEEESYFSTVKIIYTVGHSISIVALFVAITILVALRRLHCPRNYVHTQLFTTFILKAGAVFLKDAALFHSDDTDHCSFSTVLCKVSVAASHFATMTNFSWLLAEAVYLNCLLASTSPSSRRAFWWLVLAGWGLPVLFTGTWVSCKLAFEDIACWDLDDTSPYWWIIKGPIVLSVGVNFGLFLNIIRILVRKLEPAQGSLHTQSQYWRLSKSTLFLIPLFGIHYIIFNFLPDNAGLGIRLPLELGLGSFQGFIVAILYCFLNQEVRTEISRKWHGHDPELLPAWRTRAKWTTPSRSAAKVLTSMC
T8 sequence (Q02643 83-423 limits assumed, stated change not applied): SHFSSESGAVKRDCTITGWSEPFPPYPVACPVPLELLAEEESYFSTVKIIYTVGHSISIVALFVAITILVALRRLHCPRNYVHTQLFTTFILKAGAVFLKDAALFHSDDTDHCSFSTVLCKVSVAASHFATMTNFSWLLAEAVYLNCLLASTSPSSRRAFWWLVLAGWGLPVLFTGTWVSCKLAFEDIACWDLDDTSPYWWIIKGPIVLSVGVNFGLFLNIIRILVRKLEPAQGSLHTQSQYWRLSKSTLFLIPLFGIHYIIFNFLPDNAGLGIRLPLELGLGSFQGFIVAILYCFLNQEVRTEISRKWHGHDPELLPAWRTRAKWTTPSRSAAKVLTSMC
T10 sequence (Q02643 33-423 limits assumed, stated change not applied): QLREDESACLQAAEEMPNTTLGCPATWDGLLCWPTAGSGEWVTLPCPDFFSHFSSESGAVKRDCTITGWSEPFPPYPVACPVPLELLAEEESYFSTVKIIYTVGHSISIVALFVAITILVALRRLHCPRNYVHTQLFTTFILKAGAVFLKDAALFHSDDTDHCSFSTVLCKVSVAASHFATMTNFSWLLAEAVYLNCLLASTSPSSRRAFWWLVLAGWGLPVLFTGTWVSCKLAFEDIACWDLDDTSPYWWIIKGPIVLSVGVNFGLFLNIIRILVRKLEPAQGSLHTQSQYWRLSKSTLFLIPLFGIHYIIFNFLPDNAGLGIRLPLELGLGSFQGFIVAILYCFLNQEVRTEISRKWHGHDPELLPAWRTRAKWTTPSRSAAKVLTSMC

CC[C@H](C)[C@H](NC(=O)[C@H](C)NC(=O)[C@H](CC(=O)O)NC(=O)[C@H](C)NC(=O)[C@@H](N)Cc1ccc(O)cc1)C(=O)N[C@@H](Cc1ccccc1)C(=O)N[C@H](C(=O)N[C@@H](CC(N)=O)C(=O)N[C@@H](CO)C(=O)N[C@@H](Cc1ccc(O)cc1)C(=O)N[C@@H](CCCNC(=N)N)C(=O)N[C@@H](CCCCN)C(=O)N[C@H](C(=O)N[C@@H](CC(C)C)C(=O)NCC(=O)N[C@@H](CCC(N)=O)C(=O)N[C@@H](CC(C)C)C(=O)N[C@@H](CO)C(=O)N[C@@H](C)C(=O)N[C@@H](CCCNC(=N)N)C(=O)N[C@@H](CCCCN)C(=O)N[C@@H](CC(C)C)C(=O)N[C@@H](CC(C)C)C(=O)N[C@@H](CCC(N)=O)C(=O)N[C@@H](CC(=O)O)C(=O)N[C@H](C(=O)N[C@@H](CCSC)C(=O)N[C@@H](CO)C(=O)N[C@@H](CCCNC(=N)N)C(=O)N[C@@H](CCC(N)=O)C(=O)N[C@@H](CCC(N)=O)C(=O)NCC(=O)N[C@@H](CCC(=O)O)C(=O)N[C@@H](CO)C(=O)N[C@@H](CC(N)=O)C(=O)N[C@@H](CCC(N)=O)C(=O)N[C@@H](CCC(=O)O)C(=O)N[C@@H](CCCNC(=N)N)C(=O)NCC(=O)N[C@@H](C)C(=O)N[C@@H](CCCNC(=N)N)C(=O)N[C@@H](C)C(=O)N[C@@H](CCCNC(=N)N)C(=O)N[C@@H](CC(C)C)C(N)=O)[C@@H](C)CC)C(C)C)[C@@H](C)O [GHRH, growth hormone–releasing hormone]
Emax of Gs activation (SV1/Gs; AUC 0 to 25 min, mean ± SEM, n = 5 in duplicate, * P < 0.05): 56.67 ± 13.79 % WT GHRHR | pEC50 of Gs activation (SV1/Gs; AUC 0 to 25 min, three-parameter logistic, mean ± SEM, n = 5 in duplicate, * P < 0.05): 5.63 ± 0.36 | ability of SV1 to activate Gs (SV1/Gs; compared with GHRHR, Fig. 1A): significantly impaired | Emax (GHRHR F85A; [1]): 100 ± 1.69% | ΔLog (τ/KA) (GHRHR F85A; [2]): -0.27 ± 0.04 | Emax (GHRHR L34A; [1]): 101 ± 2.23% | ΔLog (τ/KA) (GHRHR L34A; [2]): -0.78 ± 0.06 | Emax (GHRHR Δ102; [1]): 107 ± 2.15% | ΔLog (τ/KA) (GHRHR Δ102; [2]): -3.55 ± 0.02 | Emax (GHRHR Δ112; [1]): 106 ± 2.34% | ΔLog (τ/KA) (GHRHR Δ112; [2]): -3.65 ± 0.02 | Emax (GHRHR Δ42; [1]): 104 ± 1.53% | ΔLog (τ/KA) (GHRHR Δ42; [2]): -2.86 ± 0.02 | Emax (GHRHR Δ52; [1]): 106 ± 1.62% | ΔLog (τ/KA) (GHRHR Δ52; [2]): -2.83 ± 0.03 | Emax (GHRHR Δ62; [1]): 104 ± 2.19% | ΔLog (τ/KA) (GHRHR Δ62; [2]): -3.05 ± 0.03 | Emax (GHRHR Δ82; [1]): 104 ± 2.51% | ΔLog (τ/KA) (GHRHR Δ82; [2]): -3.14 ± 0.03 | cAMP responses after removal of the N-terminal 89 residues (GHRHR Δ89; HEK293T, Fig. 1B): diminished cAMP responses | Emax (GHRHR Δ89; HEK-293T, Table S2, HEK293T, mean ± SEM, n = 3-5 in quadruplicate): 106 ± 2.48% | ΔLog (τ/KA) (GHRHR Δ89; Table S2, operational model, τ corrected by cell surface expression, relative to WT GHRHR, mean ± SEM): -3.28 ± 0.03 | ΔLog (τ/KA) (GHRHR Δ32): -3.23 ± 0.04

Reference: PMC8501799, “Constitutive signal bias mediated by the human GHRHR splice variant 1” (Proceedings of the National Academy of Sciences of the …, 2021)
